Results published in patent US20230346948A1, “Lipid conjugated peptide inhibitors of PICK1” (University of Copenhagen, priority 2020, published 2023).
“And” between values parts separate entries of the source, which are not always exact repeats. Equal entries are not always repeated. Where two headings read alike, the source gives them in different places.

What was measured:
[1] = system: diabetic neuropathy (STZ model); conditions: for maximum reversal of mechanical response threshold: 2 h post-administration
Method: Diabetic neuropathy (STZ) model. Diabetes is induced by a single IP injection of […]. Streptozocin solution (100 μl/10 g, Sigma-aldrich S0130, batch #WXBB7152V). Glycemia is tested before, and 7 days after injection.
The mechanical threshold response of the operated mice was measured with calibrated von Frey filaments (“up/down” method) and the 50% threshold (g) was calculated. The experimenter was blinded to mice treatment. […] Compounds were diluted in PBS (vehicle) and administered s.c. at 10 μL/g, in doses as indicated (gabapentine, 5MPK). Statistical analysis was performed using GraphPad Prism 6.0.

[2] = target: T1, PICK1 (Rattus norvegicus, UniProt Q9EP80); experiment: Size exclusion chromatography of PICK1 in complex with inhibitor; conditions: 40 μM PICK1 with 10 μM inhibitor (4:1)
T1 construct: Full length rat PICK1 (pET41) was prepared as described earlier; inferred from pET41 vector and Glutathione-Sepharose capture) (N, cleaved yes); made in house; host or cells: E. coli BL21-DE3-pLysS
T1 sequence (Q9EP80 whole entry): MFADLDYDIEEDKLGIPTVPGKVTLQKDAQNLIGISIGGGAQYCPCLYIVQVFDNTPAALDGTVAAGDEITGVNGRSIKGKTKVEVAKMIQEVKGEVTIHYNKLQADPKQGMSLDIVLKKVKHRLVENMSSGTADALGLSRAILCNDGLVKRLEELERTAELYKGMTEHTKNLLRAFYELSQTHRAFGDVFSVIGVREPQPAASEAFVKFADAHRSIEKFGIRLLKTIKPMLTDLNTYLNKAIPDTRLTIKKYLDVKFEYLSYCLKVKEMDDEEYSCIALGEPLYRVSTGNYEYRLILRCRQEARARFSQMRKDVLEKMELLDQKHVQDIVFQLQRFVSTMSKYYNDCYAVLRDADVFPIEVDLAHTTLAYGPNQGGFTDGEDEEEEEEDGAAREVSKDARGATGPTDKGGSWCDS
Method: Full length rat PICK1 (pET41) was prepared as described earlier (Madsen et al., 2005). In brief, PICK1 was expressed in BL21-DE3-pLysS cells and grown at 37° C., induced at OD600=0.6 with 1 mM Isopropyl β-D-1-thiogalactopyranoside (IPTG) and grown 16 hrs at 20° C. Cultures were harvested and re-suspended in 50 mM trisaminomethane (Tris), 125 mM NaCl, 2 mM Dithiothreitol (DTT, Sigma), 1% Triton X-100 (Sigma), 20 μg/mL DNAse 1 and 1⁄2 a tablet cOmplete protease inhibitor cocktail (Roche) pr. 1 L culture. The re-suspended pellets were frozen at -80° C. for later purification. […] Each column was sealed and 0.075 U/μL, Novagen® was added for cleavage 0/N at 4° C. under gentle rotation. PICK1 was eluted on ice and absorption at 280 nm was measured on TECAN plate reader or on a NanoDrop3000. The protein concentration was determined using lambert beers law (A=ε[…]=32320 (cm*mol/L)^-1. Size exclusion chromatography: Size exclusion chromatography was performed using an Äkta purifier with a Superdex200 Increase 10/300 column, where 500 μL of 40 μM PICK1 in absence or presence of 10 μM […] was loaded to the column. Absorbance profile was measured at 280 nm and plotted against elution volume using Graph Pad Prism 8.3.

[3] = Size exclusion chromatography, self-assembly in solution; type: physicochemical; conditions: Superdex200 Increase 10/300
Method: Size exclusion chromatography: Size exclusion chromatography was done using an Äkta purifier with a Superdex200 Increase 10/300 column, where 500 μL of […] or […] at the indicated concentration was injected onto the column. Absorbance profile was measured at 280 nm and plotted against elution volume using Graph Pad Prism 8.3.

[4] = system: neuropathic pain (SNI model); experiment: Spared Nerve Injury (SNI) model of neuropathic pain, von Frey; type: in vivo, mice; conditions: for relief of evoked pain (paw withdrawal threshold): day 7 after SNI, tested 1-6 h
Method: Neuropathic pain. The SNI pain experiment was performed by Phenotype Expertise-Pain and CNS behaviour CRO under supervision of […]). Study was performed on 8 weeks old […] male mice (Charles River). The spared nerve injury surgery was performed on anaesthetized mice. Ligature and transection of the common peroneal and tibial distal branches of the sciatic nerve was performed, leaving the sural branch intact. […] The experimenter was blinded to mice treatment. […] All the compounds were diluted in PBS and administered s.c. at 10 μL/g. Statistical analysis was performed using GraphPad Prism 6.0. Two-way RM ANOVA followed by Bonferroni's post-hoc test. Significance level set to p<0.05. Neuropathic pain. Study was performed on 8 weeks old […] male mice (Charles River). The spared nerve injury surgery was performed on anaesthetized mice. Ligature and transection of the common peroneal and tibial distal branches of the sciatic nerve was performed, leaving the sural branch intact. […] The experimenter was blinded to mice treatment. […] All the compounds were diluted in PBS and administered 10 μmol/kg (10 μL/gram) […]. at 10 μL/g. Statistical analysis was performed using GraphPad Prism 6.0. Two-way RM ANOVA followed by Bonferroni's post-hoc test. Significance level set to p<0.05. Neuropathic pain. Study was performed on 8 weeks old […] male mice (Charles River). The spared nerve injury surgery was performed on anaesthetized mice. Ligature and transection of the common peroneal and tibial distal branches of the sciatic nerve was performed, leaving the sural branch intact. […] The mice were testes in von Frey monthly and the hyperalgesic response at 52 weeks was sustained. […] The experimenter was blinded to mice treatment. After injection, mechanical threshold was measured, 2 and 5 hrs. All the compounds were diluted in PBS and administered s.c. at 10 μL/g, 30 μmol/kg. Statistical analysis was performed using GraphPad Prism 6.0.

[5] = Solubility by visual inspection in PBS; type: physicochemical
[6] = Plasma exposure after s.c. injection, LC-MS; type: in vivo; conditions: male, C57BL/6N, mouse, sc; for Cmax: at 1 h, read-out: maximal plasma concentration
Method: Three point on the down-slope was determined from 3 points on the elimination phase.

CCCCCCCCCCCCCC(=O)N(CCOCCOCCC(=O)N[C@@H](Cc1c[nH]cn1)C(=O)N[C@@H](Cc1c[nH]c2ccccc12)C(=O)N[C@@H](CC(C)C)C(=O)N[C@@H](CCCCN)C(=O)N[C@H](C(=O)O)C(C)C)CCOCCOCCC(=O)N[C@@H](Cc1c[nH]cn1)C(=O)N[C@@H](Cc1c[nH]c2ccccc12)C(=O)N[C@@H](CC(C)C)C(=O)N[C@@H](CCCCN)C(=O)N[C@H](C(=O)O)C(C)C [myr-NPEG4-(HWLKV)2]
analgesic effect ([1]; s.c. 2 μmol/kg): weaker effect
maximum reversal of mechanical response threshold ([1]; s.c. 2 μmol/kg): 49.2±7.9 % of baseline
analgesic effect ([1]; s.c. 10 μmol/kg): strong and long-lasting effect up to 4 h
maximum reversal of mechanical response threshold ([1]; s.c. 10 μmol/kg): 67.3±4.5 % of baseline
oligomeric state of PICK1 upon binding (SEC elution volume) [2]: forms higher order oligomeric structures of PICK1 upon binding
SEC elution compared with unconjugated NPEG4-(HWLKV)2 [3]: eluted at lower elution volume
paw withdrawal threshold of uninjured contralateral paw ([4]; SNI model, Example 8): remained unaltered
relief of evoked pain (paw withdrawal threshold) ([4]; s.c. 2 μmol/kg): no significant pain relief
relief of evoked pain (paw withdrawal threshold) ([4]; s.c. 10 μmol/kg): significant pain relief up to 3 hours post injection
relief of evoked pain (paw withdrawal threshold), chronic pain ([4]; s.c. 30 μmol/kg, 52 weeks after SNI, tested 2 and 5 h): highly significant effect of the treatment at 5 hrs
solubility [5]: ≥ 130000 µM and 250000 µg/mL
Cmax ([6]; s.c. 3.75 mg/kg (2 μmol/kg)): 1450 ± 106 ng/mL
Cmax ([6]; s.c. 18.8 mg/kg (10 μmol/kg)): 6170 ± 508 ng/mL
Cmax ([6]; s.c. 93.8 mg/kg (50 μmol/kg)): 20300 ± 642 ng/mL
half-life ([6]; summary over doses): 30 to 45 min
